Patent US20260097043A1, “NOVEL FORMULATIONS AND VEHICLES” (WisTa Laboratories Ltd., priority 2022, published 2026)

Tests used:
[1] = type: in vivo, human; conditions: 4 mg MTC approximately twice weekly; MCI to moderate AD
Experimental: Prior-filed PCT/EP2023/064369 (Example 3) describes the structure of a phase 3 clinical trial in mild to moderate AD in which different arms of participants were treated with MTC and LMTM respectively. This was a Phase 3, randomized, double-blind, outpatient trial to evaluate the safety, efficacy, and tolerability of LMTM in participants with severity ranging from mild cognitive impairment (MCI) to moderate AD. The MTC minipill was intended as a urinary discolourant placebo (in combination with a true placebo i.e. a blank minipill lacking any MTC or LMTM). […] Of patients receiving MTC 4 mg twice weekly, the majority (85%) were unexpectedly found to have blood levels of active drug above the threshold needed to produce a clinical effect.

[2] = 4 mg twice weekly; prior-filed PCT/EP2023/064369; cited from earlier work
[3] = Baddeley et al., 2015, cited from earlier work
[4] = test system: TDP-43; conditions: 0.05 μM MT; SH-SY5Y cells; Yamashita et al 2009; cited from earlier work
[5] = test system: huntingtin derivative containing a polyglutamine stretch of 102 residues; conditions: tested at 0, 10 and 100 μM; zebrafish; van Bebber et al. 2010; cited from earlier work

## CN(C)c1ccc2nc3ccc(N(C)C)cc3[s+]c2c1 [MTC, 3,7-bisdimethylaminophenazothionium chloride]
[1]
  clinical benefit: showed clinical benefit
[2]
  therapeutic benefits in treating Alzheimer's disease: showed therapeutic benefits

## CN(C)c1ccc2c(c1)Sc1cc(N(C)C)ccc1N2 [LMTM, leuco-methylthioninium bis(hydromethanesulfonate)]
[3]
  pharmaceutic properties (solubility and pKa): superior pharmaceutic properties in terms of solubility and pKa
[3]; compared with the MT+ form
  absorption limitations: not subject to the absorption limitations of the MT^+ form

## CN(C)c1ccc2nc3ccc(N(C)C)cc3[s+]c2c1 [MT, N3,N3,N7,N7-tetramethylphenothiazin-5-ium-3,7-diamine]
[4]
  reduction of the number of TDP-43 aggregates: 50%
[5]
  formation of huntingtin polyglutamine aggregates: prevented the formation of such aggregates in zebrafish in a dose dependent manner
